In US10259818B2, “Bicyclic azaheterocyclobenzylamines as PI3K inhibitors” (Incyte Corporation, priority 2012, dated 2019):

Tested on: SUDHL-6 cell line (diffuse large B cell lymphoma)
Assay: SUDHL-6 cell proliferation assay (Example B3)
Assay type: cell-based
Details: SUDHL-6 cells, 3 days, Cell Titer-GLO
Experimental: Example B3: SUDHL-6 Cell Proliferation Assay
SUDHL-6 cell line (diffuse large B cell lymphoma) was purchased from ATCC (Manassas, Va.) and maintained in the culture medium recommended (RPMI and 10% FBS). To measure the anti-proliferation activity of the compounds through ATP quantitation, the SUDHL-6 cells was plated with the culture medium (5000 cells/well/per 200 μl) into 96-well polystyrene clear black tissue culture plate (Greiner-bio-one through VWR, NJ) in the presence or absence of a concentration range of test compounds. After 3 days, Cell Titer-GLO Luminescent (Promega, Madison, Wis.) cell culture agent was added to each well for 10 minutes at room temperature to stabilize the luminescent signal. This determines the number of viable cells in culture based on quantitation of the ATP present, which signals the presence of metabolically active cells. Luminescence was measured with the TopCount 384 (Packard Bioscience through Perkin Elmer, Boston, Mass.). […] IC50 data for the Examples is presented in Table 4 determined by the assay of Example B3.

| Structure (SMILES) | IC50 (Homo sapiens, SU-DHL-6, 72 h) [nM] | IC50 [nM] |
| --- | --- | --- |
| Cc1nn(C(C)c2cc(Cl)c(F)c3c2OC(C)CN(C2CN(C(=O)OC(C)(C)C)C2)C3)c2ncnc(N)c12 (single isomer, unassigned) [Example 26, tert-Butyl 3-[9-[1-(4-amino-3-methyl-1H-pyrazolo[3,4-d]pyrimidin-1-yl)ethyl]-7-chloro-6-fluoro-2-methyl-2,3-dihydro-1,4-benzoxazepin-4(5H)-yl]azetidine-1-carboxylate] | ≤ 500 | – |
| Cc1nn(C(C)c2cc(Cl)c(F)c3c2OC[C@H](C)N(S(C)(=O)=O)C3)c2ncnc(N)c12 (single isomer, unassigned) [Example 35] | ≤ 500 | – |
| Cc1nn(C(C)c2cc(Cl)c(F)c3c2O[C@@H](C)CN(C2CC(C(N)=O)C2)C3)c2ncnc(N)c12 (single isomer, unassigned) [Example 44] | ≤ 500 | – |
| CC(=O)N1CC(N2Cc3c(C#N)c(Cl)cc(C(C)n4nc(C)c5c(N)ncnc54)c3OC(C)C2)C1 (single isomer, unassigned) [Example 48, 4-(1-Acetylazetidin-3-yl)-9-[1-(4-amino-3-methyl-1H-pyrazolo [3,4-d]pyrimidin-1-yl)ethyl]-7-chloro-2-methyl-2,3,4,5-tetrahydro-1,4-benzoxazepine-6-carbonitrile] | 500 to 1000 | – |
| Cc1nn(C(C)c2cc(Cl)c(C#N)c3c2OC(C)CN(C2CN(CC(N)=O)C2)C3)c2ncnc(N)c12 (single isomer, unassigned) [Example 50, 2-{3-[9-[1-(4-Amino-3-methyl-1H-pyrazolo[3,4-d]pyrimidin-1-yl)ethyl]-7-chloro-6-cyano-2-methyl-2,3-dihydro-1,4-benzoxazepin-4(5H)-yl]azetidin-1-yl}acetamide] | ≤ 500 | – |
| Cc1nn(C(C)c2cc(Cl)c(C#N)c3c2OC(C)CN(C2CN(CC(N)=O)C2)C3)c2ncnc(N)c12 (single isomer, unassigned) [Example 53, 2-{3-[9-[1-(4-Amino-3-methyl-1H-pyrazolo[3,4-d]pyrimidin-1-yl)ethyl]-7-chloro-6-cyano-2-methyl-2,3-dihydro-1,4-benzoxazepin-4(5H)-yl]azetidin-1-yl}acetamide] | ≤ 500 | – |
| Cc1nn(C(C)c2cc(Cl)c(C#N)c3c2OC(C)CN(C2CN(CC(C)(C)O)C2)C3)c2ncnc(N)c12 (single isomer, unassigned) [Example 54, 9-[1-(4-Amino-3-methyl-1H-pyrazolo[3,4-d]pyrimidin-1-yl)ethyl]-7-chloro-4-[1-(2-hydroxy-2-methylpropyl)azetidin-3-yl]-2-methyl-2,3,4,5-tetrahydro-1,4-benzoxazepine-6-carbonitrile] | ≤ 500 | – |
| Cc1nn(C(C)c2cc(Cl)c(C#N)c3c2OC(C)CN(C2CN(CC(C)(C)O)C2)C3)c2ncnc(N)c12 (single isomer, unassigned) [Example 55, 9-[1-(4-Amino-3-methyl-1H-pyrazolo[3,4-d]pyrimidin-1-yl)ethyl]-7-chloro-4-[1-(2-hydroxy-2-methylpropyl)azetidin-3-yl]-2-methyl-2,3,4,5-tetrahydro-1,4-benzoxazepine-6-carbonitrile] | – | ≤ 500 |
| Cc1nn(C(C)c2cc(Cl)c(C#N)c3c2OC(C)CN(Cc2cccnc2)C3)c2ncnc(N)c12 (single isomer, unassigned) [Example 60, 9-[1-(4-Amino-3-methyl-1H-pyrazolo[3,4-d]pyrimidin-1-yl)ethyl]-7-chloro-2-methyl-4-(pyridin-3-ylmethyl)-2,3,4,5-tetrahydro-1,4-benzoxazepine-6-carbonitrile] | ≤ 500 | – |
| Cc1nn(C(C)c2cc(Cl)c(C#N)c3c2OC(C)CN(CC(C)(C)O)C3)c2ncnc(N)c12 (single isomer, unassigned) [Example 65, 9-[1-(4-Amino-3-methyl-1H-pyrazolo[3,4-d]pyrimidin-1-yl)ethyl]-7-chloro-4-(2-hydroxy-2-methylpropyl)-2-methyl-2,3,4,5-tetrahydro-1,4-benzoxazepine-6-carbonitrile] | ≤ 500 | – |
| Cc1nn(C(C)c2cc(Cl)c(C#N)c3c2OC(C)CN(CC(C)(C)O)C3)c2ncnc(N)c12 (single isomer, unassigned) [Example 66, 9-[1-(4-Amino-3-methyl-1H-pyrazolo[3,4-d]pyrimidin-1-yl)ethyl]-7-chloro-4-(2-hydroxy-2-methylpropyl)-2-methyl-2,3,4,5-tetrahydro-1,4-benzoxazepine-6-carbonitrile] | – | ≤ 500 |
| CC(=O)NC1CC(N2Cc3c(C#N)c(Cl)cc(C(C)n4nc(C)c5c(N)ncnc54)c3OC(C)C2)C1 (single isomer, unassigned) [Example 67, N-{3-[9-[1-(4-Amino-3-methyl-1H-pyrazolo[3,4-d]pyrimidin-1-yl)ethyl]-7-chloro-6-cyano-2-methyl-2,3-dihydro-1,4-benzoxazepin-4(5H)-yl]cyclobutyl}acetamide] | ≤ 500 | – |
| CC(=O)NC1CC(N2Cc3c(C#N)c(Cl)cc(C(C)n4nc(C)c5c(N)ncnc54)c3OC(C)C2)C1 (single isomer, unassigned) [Example 68, N-{3-[9-[1-(4-Amino-3-methyl-1H-pyrazolo[3,4-d]pyrimidin-1-yl)ethyl]-7-chloro-6-cyano-2-methyl-2,3-dihydro-1,4-benzoxazepin-4(5H)-yl]cyclobutyl}acetamide] | – | ≤ 500 |
| CCC1CN(CCO)Cc2c(C#N)c(Cl)cc(C(C)n3nc(C)c4c(N)ncnc43)c2O1 (single isomer, unassigned) [Example 69, 9-[1-(4-Amino-3-methyl-1H-pyrazolo[3,4-d]pyrimidin-1-yl)ethyl]-7-chloro-2-ethyl-4-(2-hydroxyethyl)-2,3,4,5-tetrahydro-1,4-benzoxazepine-6-carbonitrile] | ≤ 500 | – |
| CCC1CN(CCO)Cc2c(C#N)c(Cl)cc(C(C)n3nc(C)c4c(N)ncnc43)c2O1 (single isomer, unassigned) [Example 70, 9-[1-(4-Amino-3-methyl-1H-pyrazolo[3,4-d]pyrimidin-1-yl)ethyl]-7-chloro-2-ethyl-4-(2-hydroxyethyl)-2,3,4,5-tetrahydro-1,4-benzoxazepine-6-carbonitrile] | – | ≤ 500 |
| Cc1nn(C(C)c2cc(Cl)c(F)c3c2OC(C)CN(C[C@@H](C)O)C3)c2ncnc(N)c12 (single isomer, unassigned) [Example 78] | ≤ 500 | – |
| COC(=O)N1CC(N2Cc3c(F)c(Cl)cc(C(C)n4nc(C)c5c(N)ncnc54)c3OC(C)C2)C1 (single isomer, unassigned) [Example 80, methyl 3-[9-[1-(4-amino-3-methyl-1H-pyrazolo[3,4-d]pyrimidin-1-yl)ethyl]-7-chloro-6-fluoro-2-methyl-2,3-dihydro-1,4-benzoxazepin-4(5H)-yl]azetidine-1-carboxylate] | ≤ 500 | – |
| Cc1nn(C(C)c2cc(Cl)c(F)c3c2OC(C)CN(C2CN(S(N)(=O)=O)C2)C3)c2ncnc(N)c12 (single isomer, unassigned) [Example 82, 3-[9-[1-(4-amino-3-methyl-1H-pyrazolo[3,4-d]pyrimidin-1-yl)ethyl]-7-chloro-6-fluoro-2-methyl-2,3-dihydro-1,4-benzoxazepin-4(5H)-yl]azetidine-1-sulfonamide] | ≤ 500 | – |
| Cc1nn(C(C)c2cc(Cl)c(F)c3c2OC(C)CN(C2CN(C(N)=O)C2)C3)c2ncnc(N)c12 (single isomer, unassigned) [Example 83, 3-[9-[1-(4-amino-3-methyl-1H-pyrazolo[3,4-d]pyrimidin-1-yl)ethyl]-7-chloro-6-fluoro-2-methyl-2,3-dihydro-1,4-benzoxazepin-4(5H)-yl]azetidine-1-carboxamide] | ≤ 500 | – |
